Test [1] deals with AKT-3 (Homo sapiens, UniProt Q9Y243). Kind of test: AKT inhibition assay (coupled enzyme assay). Particulars: 45 nM AKT, 170 μM ATP, 30° C. The test is classed as biochemical. The method, then:
Compounds were screened for their ability to inhibit AKT using a standard coupled enzyme assay (Fox et al., Protein Sci., (1998) 7, 2249). Assays were carried out in a mixture of 100 mM HEPES 7.5, 10 mM MgCl2, 25 mM NaCl, 1 mM DTT and 1.5% DMSO. Final substrate concentrations in the assay were 170 μM ATP (Sigma Chemicals) and 200 μM peptide (RPRAATF, American Peptide, Sunnyvale, Calif.). Assays were carried out at 30° C. and 45 nM AKT. Final concentrations of the components of the coupled enzyme system were 2.5 mM phosphoenolpyruvate, 300 μM NADH, 30 μg/ML pyruvate kinase and 10 μg/ml lactate dehydrogenase.
An assay stock buffer solution was prepared containing all of the reagents listed above, with the exception of AKT, DTT, and the test compound of interest. 56 μl of the stock solution was placed in a 384 well plate followed by addition of 1 μl of 2 mM DMSO stock containing the test compound (final compound concentration 30 μM). The plate was preincubated for about 10 minutes at 30° C. and the reaction initiated by addition of 10 μl of enzyme (final concentration 45 nM) and 1 mM DTT. Rates of reaction were obtained using a BioRad Ultramark plate reader (Hercules, Calif.) over a 5 minute read time at 30° C.

In test [2] the target is T1, human Src kinase (Homo sapiens, UniProt P12931).
T1 construct: full length recombinant human Src kinase (from Upstate Biotechnology, cat. no. 14-117); purchased Upstate Biotechnology 14-117; host or cells: baculo viral cells
Nature of the test: SRC inhibition assay (radioactivity-based or spectrophotometric assay). The class given is biochemical. To be noted: recombinant human Src kinase; assay A or B; read-out: Ki value on SRC. The method in brief:
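Full-length recombinant human Src from baculovirus was used. In the radiometric format, enzyme was preincubated 10 min at 30 °C, the reaction was started with ^33P-ATP and run 20 min, then TCA-quenched and filter-counted. The alternative format monitored poly Glu-Tyr phosphorylation by NADH-coupled A340 rate. Ki came from competitive-inhibition fits.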

Structures are written as SMILES. pKi: −log10 of the molar value.

The term pKi denotes −log10 of the Ki, conventionally taken in molar units.

T1 sequence (P12931 whole entry): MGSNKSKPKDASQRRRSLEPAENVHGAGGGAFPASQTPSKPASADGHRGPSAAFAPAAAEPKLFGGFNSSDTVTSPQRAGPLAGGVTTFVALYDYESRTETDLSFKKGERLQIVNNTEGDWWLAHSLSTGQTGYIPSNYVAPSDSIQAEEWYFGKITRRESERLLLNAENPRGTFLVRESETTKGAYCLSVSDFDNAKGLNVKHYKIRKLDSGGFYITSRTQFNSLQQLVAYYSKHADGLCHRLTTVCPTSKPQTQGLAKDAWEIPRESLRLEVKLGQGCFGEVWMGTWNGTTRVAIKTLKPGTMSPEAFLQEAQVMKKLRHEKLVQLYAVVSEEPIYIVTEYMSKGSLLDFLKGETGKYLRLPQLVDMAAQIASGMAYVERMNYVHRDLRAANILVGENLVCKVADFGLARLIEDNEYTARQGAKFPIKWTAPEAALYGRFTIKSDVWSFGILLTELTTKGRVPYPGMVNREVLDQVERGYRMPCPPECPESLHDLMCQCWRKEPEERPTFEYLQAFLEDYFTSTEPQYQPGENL
Sequence of AKT-3 (Q9Y243 whole entry, species assumed): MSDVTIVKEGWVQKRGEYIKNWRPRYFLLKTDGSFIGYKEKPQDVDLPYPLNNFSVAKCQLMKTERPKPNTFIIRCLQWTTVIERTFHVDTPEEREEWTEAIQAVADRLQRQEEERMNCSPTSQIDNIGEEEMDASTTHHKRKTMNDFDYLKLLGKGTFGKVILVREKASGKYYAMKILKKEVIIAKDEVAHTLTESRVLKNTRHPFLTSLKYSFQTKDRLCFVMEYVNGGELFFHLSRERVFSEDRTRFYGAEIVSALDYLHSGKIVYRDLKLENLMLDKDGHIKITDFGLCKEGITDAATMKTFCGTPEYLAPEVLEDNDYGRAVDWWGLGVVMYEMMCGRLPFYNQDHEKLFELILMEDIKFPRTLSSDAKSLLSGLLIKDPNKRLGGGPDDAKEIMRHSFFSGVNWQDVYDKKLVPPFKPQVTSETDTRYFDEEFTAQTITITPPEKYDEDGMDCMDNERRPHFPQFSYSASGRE

Regarding `c1ccc2c(Nc3cc(C4CC4)[nH]n3)nc(Nc3ccc4ncsc4c3)nc2c1` [IIc-32, [2-(Benzothiazol-6-ylamino)-quinazolin-4-yl]-(5-cyclopropyl-2H-pyrazol-3-yl)-amine], the pKi was 4.70 to 6.00 in test [1] and more than 7.00 in test [2].

Source of the values: patent publication US6653300B2, “Pyrazole compounds useful as protein kinase inhibitors” (Vertex Pharmaceuticals Incorporated, priority 2000, dated 2003).
